Measurements published in paper PMC9948168, “Vanillin-Based Indolin-2-one Derivative Bearing a Pyridyl Moiety as a Promising Anti-Breast Cancer Agent via Anti-Estrogenic Activity” (ACS Omega, 2023).

Legend:
Experiment in all cases: NCI-60 one-dose screening
Assay type in all cases: cell-based
786-0 = details: Homo sapiens, 786-0, Renal Cancer, read-out: GI (%)
A549/ATCC = details: Homo sapiens, Non-Small Cell Lung Cancer, read-out: GI (%)
ACHN = details: Homo sapiens, Renal Cancer, read-out: GI (%)
CAKI-1 = details: Homo sapiens, CAKI-1, Renal Cancer, read-out: GI (%)
COLO 205 = details: Homo sapiens, COLO 205, Colon Cancer, read-out: GI (%)
HCC-2998 = details: Homo sapiens, HCC-2998, Colon Cancer, read-out: GI (%)
HL-60(TB) = details: Homo sapiens, Leukemias, read-out: GI (%)
HOP-62 = details: Homo sapiens, HOP-62, Non-Small Cell Lung Cancer, read-out: GI (%)
K-562 = details: Homo sapiens, K562, K-562, Leukemias, read-out: GI (%)
LOX IMVI = details: Homo sapiens, Melanoma, read-out: GI (%)
M14 = details: Homo sapiens, M14, Melanoma, read-out: GI (%)
MCF7 = details: Homo sapiens, MCF7, 10 μM; MCF7, Breast Cancer; read-out: GI (%)
MDA-MB-231/ATCC = details: Homo sapiens, Breast Cancer, read-out: GI (%)
MDA-MB-468 = details: Homo sapiens, MDA-MB-468, Breast Cancer, read-out: GI (%)
MOLT-4 = details: Homo sapiens, MOLT-4, Leukemias, read-out: GI (%)
OVCAR-3 = details: Homo sapiens, OVCAR-3, 10 μM; OVCAR-3, Ovarian Cancer; read-out: GI (%)
OVCAR-8 = details: Homo sapiens, OVCAR-8, Ovarian Cancer, read-out: GI (%)
RXF 393 = details: Homo sapiens, RXF 393, Renal Cancer, read-out: GI (%)
SF-295 = details: Homo sapiens, SF-295, CNS Cancer, read-out: GI (%)
SK-MEL-2 = details: Homo sapiens, SK-MEL-2, Melanoma, read-out: GI (%)
SNB-19 = details: Homo sapiens, SNB-19, CNS Cancer, read-out: GI (%)
SNB-75 = details: Homo sapiens, SNB-75, CNS Cancer, read-out: GI (%)
T-47D = details: Homo sapiens, T47D, Breast Cancer, read-out: GI (%)
TK-10 = details: Homo sapiens, TK-10, Renal Cancer, read-out: GI (%)
U251 = details: Homo sapiens, U-251, U251, CNS Cancer, read-out: GI (%)

## COc1cc(C=C2C(=O)Nc3ccccc32)ccc1O (mixture of isomers) [5a]
786-0
  inhibition at 10 µM: -0.72%
A549/ATCC
  inhibition at 10 µM: 3.48%
ACHN
  inhibition at 10 µM: 22.8%
CAKI-1
  inhibition at 10 µM: 36%
COLO 205
  inhibition at 10 µM: -13.8%
HCC-2998
  inhibition at 10 µM: -15%
HL-60(TB)
  inhibition at 10 µM: 15.1%
HOP-62
  inhibition at 10 µM: 20.7%
K-562
  inhibition at 10 µM: 9.79%
LOX IMVI
  inhibition at 10 µM: 28.6%
M14
  inhibition at 10 µM: 23.5%
MCF7
  inhibition at 10 µM: 44.8%
MDA-MB-231/ATCC
  inhibition at 10 µM: 33.7%
MDA-MB-468
  inhibition at 10 µM: 32.7%
MOLT-4
  inhibition at 10 µM: 10.4%
OVCAR-3
  inhibition at 10 µM: 19.4%
OVCAR-8
  inhibition at 10 µM: 15.5%
RXF 393
  inhibition at 10 µM: -6.54%
SF-295
  inhibition at 10 µM: 7.71%
SK-MEL-2
  inhibition at 10 µM: 7.03%
SNB-19
  inhibition at 10 µM: 6.94%
SNB-75
  inhibition at 10 µM: 50.6%
T-47D
  inhibition at 10 µM: 31.6%
TK-10
  inhibition at 10 µM: -90.5%
U251
  inhibition at 10 µM: 22.2%

## COc1cc(C=C2C(=O)Nc3ccc(Cl)cc32)ccc1O (mixture of isomers) [5b]
786-0
  inhibition at 10 µM: 0.79%
A549/ATCC
  inhibition at 10 µM: 3.56%
ACHN
  inhibition at 10 µM: 26%
CAKI-1
  inhibition at 10 µM: 41%
COLO 205
  inhibition at 10 µM: -11.7%
HCC-2998
  inhibition at 10 µM: -1.13%
HL-60(TB)
  inhibition at 10 µM: 23.1%
HOP-62
  inhibition at 10 µM: 16.5%
K-562
  inhibition at 10 µM: 28.1%
LOX IMVI
  inhibition at 10 µM: 22.5%
M14
  inhibition at 10 µM: 18.4%
MCF7
  inhibition at 10 µM: 57.5%
MDA-MB-231/ATCC
  inhibition at 10 µM: 36.7%
MDA-MB-468
  inhibition at 10 µM: 31.3%
MOLT-4
  inhibition at 10 µM: 23.1%
OVCAR-3
  inhibition at 10 µM: 25.8%
OVCAR-8
  inhibition at 10 µM: 13.8%
RXF 393
  inhibition at 10 µM: -7.81%
SF-295
  inhibition at 10 µM: 8.92%
SK-MEL-2
  inhibition at 10 µM: 6.25%
SNB-19
  inhibition at 10 µM: 20.7%
SNB-75
  inhibition at 10 µM: 50.1%
T-47D
  inhibition at 10 µM: 40.9%
TK-10
  inhibition at 10 µM: -56.3%
U251
  inhibition at 10 µM: 39.8%

## COc1cc(C=C2C(=O)Nc3ccc(Cl)cc32)ccc1OCc1ccc(Cl)cc1 (mixture of isomers) [6g]
786-0
  inhibition at 10 µM: 4.52%
A549/ATCC
  inhibition at 10 µM: 7.48%
ACHN
  inhibition at 10 µM: 71.9%
CAKI-1
  inhibition at 10 µM: 24.2%
COLO 205
  inhibition at 10 µM: -7.05%
HCC-2998
  inhibition at 10 µM: -4.18%
HL-60(TB)
  inhibition at 10 µM: -1.67%
HOP-62
  inhibition at 10 µM: 13.1%
K-562
  inhibition at 10 µM: 10.4%
LOX IMVI
  inhibition at 10 µM: 46.1%
M14
  inhibition at 10 µM: 2.22%
MCF7
  inhibition at 10 µM: 54.4%
MDA-MB-231/ATCC
  inhibition at 10 µM: 21.6%
MDA-MB-468
  inhibition at 10 µM: 17.2%
MOLT-4
  inhibition at 10 µM: 8.95%
OVCAR-3
  inhibition at 10 µM: 74 to 97%
OVCAR-8
  inhibition at 10 µM: 8.51%
RXF 393
  inhibition at 10 µM: 9.18%
SF-295
  inhibition at 10 µM: 6.36%
SK-MEL-2
  inhibition at 10 µM: -8.12%
SNB-19
  inhibition at 10 µM: 12.8%
SNB-75
  inhibition at 10 µM: 28.1%
T-47D
  inhibition at 10 µM: 10%
TK-10
  inhibition at 10 µM: -56%
U251
  inhibition at 10 µM: 52.1%

## COc1cc(C=C2C(=O)Nc3ccc(Cl)cc32)ccc1OCc1ccc(F)cc1 (mixture of isomers) [6h]
786-0
  inhibition at 10 µM: -0.02%
A549/ATCC
  inhibition at 10 µM: 15.1%
ACHN
  inhibition at 10 µM: 47.3%
CAKI-1
  inhibition at 10 µM: 16.7%
COLO 205
  inhibition at 10 µM: 6.56%
HCC-2998
  inhibition at 10 µM: -7.02%
HL-60(TB)
  inhibition at 10 µM: -2.34%
HOP-62
  inhibition at 10 µM: 7.95%
K-562
  inhibition at 10 µM: 11.4%
LOX IMVI
  inhibition at 10 µM: 31.7%
M14
  inhibition at 10 µM: 3.61%
MCF7
  inhibition at 10 µM: 51%
MDA-MB-231/ATCC
  inhibition at 10 µM: 13.1%
MDA-MB-468
  inhibition at 10 µM: 12.8%
MOLT-4
  inhibition at 10 µM: 23.3%
OVCAR-8
  inhibition at 10 µM: 8.78%
RXF 393
  inhibition at 10 µM: 6.55%
SF-295
  inhibition at 10 µM: 2.31%
SK-MEL-2
  inhibition at 10 µM: -7.21%
SNB-19
  inhibition at 10 µM: 8.68%
SNB-75
  inhibition at 10 µM: 22.3%
T-47D
  inhibition at 10 µM: 19.5%
TK-10
  inhibition at 10 µM: -29%
U251
  inhibition at 10 µM: 49.3%
